Laboratory results as given in paper PMC4507497 (Chemistry & biology, 2015).
“And” between values parts separate entries of the source, which are not always exact repeats. Equal values may be shown once. No end group written: not given here.

Columns and labels:
[1] = molecular target: Frog KOR (Lithobates pipiens, UniProt B0JCV9); assay: Inhibition of isoproterenol-induced cAMP production; type: cell-based, Rana pipiens
[2] = system: ORs in the brains and spinal cord; conditions: Rana pipiens tissue; cited from earlier work
[3] = system: rpDOR Trp301Leu (7.35); assay: Functional and binding studies, rpDOR mutant Trp301Leu; type: cell-based, Rana pipiens
[4] = system: human DOR (Leu300Trp); assay: Inhibition of cAMP response, hDOR Leu300Trp mutant; type: cell-based; conditions: hDOR Leu300Trp vs hDOR
[5] = system: rpDOR mutants Met287Leu, Asn294Asp and Tyr296Leu; assay: Functional studies, rpDOR mutants Met287Leu, Asn294Asp and Tyr296Leu; type: cell-based, Rana pipiens; conditions: data not shown
[6] = system: human DOR; conditions: human (but not murine) DOR; cited from earlier work
[7] = system: three tested frog ORs; assay: cAMP inhibition, the three tested frog ORs; type: cell-based, Rana pipiens; conditions: frog KOR, MOR, DOR; cAMP assay
[8] = molecular target: Frog MOR (rpMOR) (Lithobates pipiens, UniProt Q7T069); assay: cell-based; parameters: species or system Rana pipiens
[9] = molecular target: Human DOR (Homo sapiens, UniProt P41143); assay: cell-based
[10] = system: h-rpMOR-wt (rpMOR with humanized N-terminus); assay: Inhibition of isoproterenol-stimulated cAMP response, chimera h-rpMOR-wt; type: cell-based, human / Rana pipiens; conditions: Table 3, HEK 293T cells
[11] = molecular target: h-rpMOR-E2h (h-rpMOR EL2h); assay: Competition binding with radiolabeled diprenorphine, h-rpMOR-E2h; parameters: species or system human / Rana pipiens; conditions: Table 3, [3H]-diprenorphine competition
[12] = system: h-rpMOR-E2h (h-rpMOR-EL2h); assay: Inhibition of isoproterenol-stimulated cAMP response, chimera h-rpMOR-E2h; type: cell-based, human / Rana pipiens; conditions: for EC50 / log EC50 ±SEM: Table 3, h-rpMOR-E2h, HEK 293T cells
[13] = molecular target: rpMOR; assay: Competition binding with radiolabeled diprenorphine, rpMOR; parameters: species or system Rana pipiens; conditions: Table 3, [3H]-diprenorphine competition
[14] = system: h-rpMOR-E3h (h-rpMOR-EL3h); assay: Inhibition of isoproterenol-stimulated cAMP response, chimera h-rpMOR-E3h; type: cell-based, human / Rana pipiens; conditions: for EC50 / log EC50 ±SEM: Table 3, h-rpMOR-E3h, HEK 293T cells
[15] = system: Frog DOR; type: cell-based, Rana pipiens; conditions: Table 2, HEK 293T cells; for EC50: NA = not active
[16] = molecular target: h-rpMOR-E3h; assay: Competition binding with radiolabeled diprenorphine, h-rpMOR-E3h; parameters: species or system human / Rana pipiens; conditions: Table 3, [3H]-diprenorphine competition
[17] = molecular target: h-rpMOR-wt; assay: Competition binding with radiolabeled diprenorphine, h-rpMOR-wt; parameters: species or system human / Rana pipiens; conditions: Table 3, [3H]-diprenorphine competition
[18] = molecular target: Human KOR (Homo sapiens, UniProt P41145); assay: cell-based
[19] = relative to chimera with humanized N-terminus only

Frog MOR (rpMOR), sequence (Q7T069 1-388): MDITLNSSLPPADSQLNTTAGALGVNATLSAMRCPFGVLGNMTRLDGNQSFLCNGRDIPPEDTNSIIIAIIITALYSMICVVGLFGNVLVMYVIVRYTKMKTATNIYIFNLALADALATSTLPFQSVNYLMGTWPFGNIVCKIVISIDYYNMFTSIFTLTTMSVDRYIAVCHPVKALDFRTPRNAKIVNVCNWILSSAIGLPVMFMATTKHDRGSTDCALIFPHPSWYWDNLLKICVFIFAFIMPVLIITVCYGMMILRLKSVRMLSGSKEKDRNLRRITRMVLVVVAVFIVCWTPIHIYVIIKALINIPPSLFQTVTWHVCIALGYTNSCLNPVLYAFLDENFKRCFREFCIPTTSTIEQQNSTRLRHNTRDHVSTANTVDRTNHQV
Frog KOR, sequence (B0JCV9 1-390): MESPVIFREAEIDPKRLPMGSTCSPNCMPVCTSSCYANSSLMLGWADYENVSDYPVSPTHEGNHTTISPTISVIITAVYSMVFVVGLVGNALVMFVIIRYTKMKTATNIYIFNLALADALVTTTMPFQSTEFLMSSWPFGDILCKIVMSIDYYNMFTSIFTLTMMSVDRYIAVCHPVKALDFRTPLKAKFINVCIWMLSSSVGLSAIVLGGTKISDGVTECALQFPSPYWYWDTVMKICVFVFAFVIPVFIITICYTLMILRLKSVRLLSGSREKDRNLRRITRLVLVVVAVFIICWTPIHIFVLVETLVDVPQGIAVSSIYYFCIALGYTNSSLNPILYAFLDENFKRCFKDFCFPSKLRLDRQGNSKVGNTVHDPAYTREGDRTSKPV
Human DOR, sequence (P41143 whole entry): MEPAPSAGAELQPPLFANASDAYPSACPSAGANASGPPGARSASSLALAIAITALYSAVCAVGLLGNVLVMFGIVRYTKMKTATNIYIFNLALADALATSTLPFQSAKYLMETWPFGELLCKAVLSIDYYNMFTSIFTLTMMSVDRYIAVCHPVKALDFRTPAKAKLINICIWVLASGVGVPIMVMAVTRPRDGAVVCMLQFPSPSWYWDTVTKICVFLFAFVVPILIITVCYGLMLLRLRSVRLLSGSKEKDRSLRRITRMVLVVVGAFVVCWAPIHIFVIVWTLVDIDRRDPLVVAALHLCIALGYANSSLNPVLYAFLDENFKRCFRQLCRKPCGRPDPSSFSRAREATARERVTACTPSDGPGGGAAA
Human KOR, sequence (P41145 whole entry): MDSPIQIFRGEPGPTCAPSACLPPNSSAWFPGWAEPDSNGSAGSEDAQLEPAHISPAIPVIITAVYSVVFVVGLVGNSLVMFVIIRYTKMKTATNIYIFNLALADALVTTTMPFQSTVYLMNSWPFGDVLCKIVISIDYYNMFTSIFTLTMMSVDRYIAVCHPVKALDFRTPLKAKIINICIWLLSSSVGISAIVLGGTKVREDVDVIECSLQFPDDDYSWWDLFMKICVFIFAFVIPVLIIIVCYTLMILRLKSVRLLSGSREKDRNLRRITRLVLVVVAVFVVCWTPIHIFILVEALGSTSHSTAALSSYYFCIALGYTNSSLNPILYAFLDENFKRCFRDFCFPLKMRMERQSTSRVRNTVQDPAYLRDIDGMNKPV

For YGGFIRKPDKYKFLNA [Xendorphin], which “activity at frog and human KORs compared” value [1] is on record?
The value was “equally active”.

For deltorphin, which “affinities to ORs in the brains and spinal cord” value [2] is on record?
The value was 30 to 80 µM.

What about the “response of the mutant compared to rpDOR” value [3] of the same compound?
The value was “substantially increased potency and affinity”.

And the “decrease of potency by the L300W mutation” value [4]?
The value was ~2000 fold.

What about the “response of the mutants” value [5] of the same compound?
Its value is “did not respond”.

With DIPP-NH2 as the compound, how does the agonist activity [6] read?
The agonist activity was “weak partial agonist activity”.

With CC(C)[C@H](NC(=O)[C@H](CC(=O)O)NC(=O)[C@H](Cc1ccccc1)NC(=O)[C@@H](C)NC(=O)[C@@H](N)Cc1ccc(O)cc1)C(=O)N[C@H](C(=O)NCC(N)=O)C(C)C [Deltorphin C, Tyr-D-Ala-Phe-Asp-Val-Val-Gly-NH2] as the compound, how does the “agonist activity at the three tested frog ORs” value [7] read?
The value was “inactive”.

Which results are given for CC(C)C[C@H](NC(=O)[C@H](Cc1ccccc1)NC(=O)CNC(=O)CNC(=O)[C@@H](N)Cc1ccc(O)cc1)C(=O)N[C@@H](CCCN=C(N)N)C(=O)N[C@@H](CCCN=C(N)N)C(=O)N[C@@H](CCC(N)=O)C(=O)N[C@@H](Cc1ccccc1)C(=O)N[C@@H](CCCCN)C(=O)N[C@H](C(=O)N[C@H](C(=O)N[C@H](C(=O)O)[C@@H](C)O)C(C)C)C(C)C [Dynorphin B]?
EC50 ([8]; EC50): 5200 nM; EC50 ([8]; log EC50 ±SEM): 5010 nM; EC50 ([9]; EC50): 360 nM; EC50 ([9]; log EC50 ±SEM): 398 nM; EC50 ([1]; EC50): 170 nM; EC50 ([1]; log EC50 ±SEM): 158 nM

For C[C@@H](NC(=O)[C@@H](N)Cc1ccc(O)cc1)C(=O)N[C@@H](Cc1ccccc1)C(=O)NCC(=O)N[C@@H](Cc1ccc(O)cc1)C(=O)N1CCC[C@H]1C(=O)N[C@@H](CO)C(N)=O [Dermorphin], which EC50 [10] is on record?
The EC50 was 230 nM.

What about the “log EC50 ±SEM” value [10] of the same compound?
Its value is −6.7 ± 0.08 M.

And the Ki [11]?
Its Ki is 112 nM.

And the “affinities to ORs in the brains and spinal cord” value [2]?
The value was 30 to 80 µM.

And the EC50 [12]?
Its EC50 is 40 nM.

And the “log EC50 ±SEM” value [12]?
Its value is −7.4 ± 0.07 M.

What about the “enhancement of receptor activation by humanization of EL2” value [12, 19] of the same compound?
Its value is ~ 10 fold.

What about the Ki [13] of the same compound?
Its Ki is 1640 nM.

What about the EC50 [14] of the same compound?
Its EC50 is 130 nM.

What about the “log EC50 ±SEM” value [14] of the same compound?
Its value is −6.9 ± 0.1 M.

What about the “enhancement of receptor activation by humanization of EL3” value [14, 19] of the same compound?
Its value is ~ 2 fold.

With NC(=O)[C@H](Cc1ccccc1)NC(=O)[C@H](Cc1ccccc1)NC(=O)[C@@H]1CCCN1C(=O)[C@@H](N)Cc1ccc(O)cc1 [Endomorphin 2] as the compound, how does the EC50 [10] read?
The EC50 was 93 nM.

What about the EC50 [12] of the same compound?
Its EC50 is 190 nM.

And the “log EC50 ±SEM” value [12]?
Its value is −6.7 ± 0.32 M.

And the EC50 ([8]; EC50)?
The EC50 was 782 nM and 920 nM.

And the EC50 ([8]; log EC50 ±SEM)?
The EC50 was 794 nM and 1000 nM.

And the EC50 [14]?
Its EC50 is 32 nM.

Which results are given for NC(=O)[C@H](Cc1ccccc1)NC(=O)[C@H](Cc1c[nH]c2ccccc12)NC(=O)[C@@H]1CCCN1C(=O)[C@@H](N)Cc1ccc(O)cc1 [Endomorphin 1]?
EC50 [10]: 43 nM; log EC50 ±SEM [10]: −7.4 ± 0.07 M; EC50 [12]: 95 nM; EC50 ([8]; EC50): 381 nM and 360 nM; EC50 ([8]; log EC50 ±SEM): 398 nM and 316 nM

For CC(C)C[C@@H](NC(=O)[C@H](Cc1ccccc1)NC(=O)CNC(=O)[C@@H](C)NC(=O)[C@@H](N)Cc1ccc(O)cc1)C(=O)O [DADLE, [D-Ala^2,D-Leu^5]-enkephalin], which EC50 ([8]; EC50) is on record?
The EC50 was 480 nM.

What about the EC50 ([8]; log EC50 ±SEM) of the same compound?
Its EC50 is 501 nM.

And the “log EC50 ±SEM” value [15]?
The value was −6.5±0.06 logM.

And the EC50 [15]?
The EC50 was 353 nM.

With C[C@@H](NC(=O)[C@@H](N)Cc1ccc(O)cc1)C(=O)NCC(=O)N(C)[C@@H](Cc1ccccc1)C(=O)NCCO [DAMGO, [D-Ala^2,N-MePhe^4,Gly-ol]-enkephalin] as the compound, how does the EC50 [10] read?
Its EC50 is 96 nM.

And the “log EC50 ±SEM” value [10]?
The value was −7.0 ± 0.08 M.

What about the Ki [11] of the same compound?
Its Ki is 80 nM.

What about the Ki [16] of the same compound?
Its Ki is 120 nM.

And the EC50 [12]?
The EC50 was 81 nM.

What about the “log EC50 ±SEM” value [12] of the same compound?
The value was −7.1 ± 0.07 M.

And the Ki [17]?
Its Ki is 100 nM.

What about the Ki [13] of the same compound?
Its Ki is 160 nM.

What about the EC50 ([8]; EC50) of the same compound?
The EC50 was 1500 nM and 1900 nM.

And the EC50 ([8]; log EC50 ±SEM)?
Its EC50 is 1580 nM and 2000 nM.

What about the EC50 ([1]; EC50, Table 2, HEK 293T cells, NA = not active) of the same compound?
Its EC50 is 2400 nM.

What about the EC50 ([1]; log EC50 ±SEM, Table 2, HEK 293T cells) of the same compound?
Its EC50 is 2510 nM.

And the EC50 [14]?
Its EC50 is 22 nM.

What about the “log EC50 ±SEM” value [14] of the same compound?
Its value is −7.7 ± 0.07 M.

For YGGFLRKYPK [α-Neoendorphin], which EC50 ([9]; EC50) is on record?
The EC50 was 1600 nM.

And the EC50 ([9]; log EC50 ±SEM)?
The EC50 was 1580 nM.

What about the “fold less potent at the frog KOR” value [1] of the same compound?
The value was 10 fold.

And the EC50 ([1]; EC50)?
Its EC50 is 78 nM.

What about the EC50 ([1]; log EC50 ±SEM) of the same compound?
Its EC50 is 79.4 nM.

And the “log EC50 ±SEM” value [15]?
Its value is −5.8±0.08 logM.

What about the EC50 [15] of the same compound?
The EC50 was 1600 nM.

What about the EC50 ([18]; EC50) of the same compound?
Its EC50 is 11 nM.

And the EC50 ([18]; log EC50 ±SEM)?
Its EC50 is 10 nM.
